Starred links: 1 amine or outer side, 2 acyl side, 3 side chain; linkers in the order of their positions; H or OH if unused. Non-standard residues stand in square brackets, D forms with d. Residues, ends and D or L forms follow the SMILES beside them. Groups on a side chain read outwards from the residue. *: point of attachment. C18 diacid = O=C(O)CCCCCCCCCCCCCCCCC(=O)*; γGlu = O=C(O)[C@H](CCC(=O)[*:2])N[*:1]; Ac4c = NC1(C(=O)O)CCC1; AEEA = NCCOCCOCC(=O)O; Aib = CC(C)(N)C(=O)O
Tests used:
[1] = Assay (III) ThT fibrillation assay for physical stability; assay type: physicochemical; details: 250 μM in 10 mM HEPES buffer, 37° C., shaking 960 rpm
Excerpt: The purpose of this assay is to assess the physical stability of the glucagon derivatives of the invention in aqueous solutions. Low physical stability of a peptide may lead to amyloid fibril formation, which is observed as well-ordered, thread-like macromolecular structures in the sample, which eventually may lead to gel formation. This has traditionally been measured by visual inspection of the sample. However, that kind of measurement is very subjective and depending on the observer. Therefore, the application of a small molecule indicator probe is much more advantageous. Thioflavin T (ThT) is such a probe and has a distinct fluorescence signature when binding to fibrils [Naiki et al. (1989) Anal. Biochem. 177, 244-249; LeVine (1999) Methods. Enzymol. 309, 274-284]. […] The constant t0 is the time needed to reach 50% of maximum fluorescence. The two important parameters describing fibril formation are the lag-time calculated by t0−2τ and the apparent rate constant kapp 1/τ. Samples were prepared freshly before each assay. Each sample composition is described in the legends. The pH of the sample was adjusted to the desired value using appropriate amounts of concentrated NaOH and HCl. Thioflavin T was added to the samples from a stock solution in H2O to a final concentration of 1 μM. Sample aliquots of 200 μl (250 μM of the glucagon derivative in 10 mM HEPES buffer, pH 7.5) were placed in a 96 well microtiter plate (Packard OptiPlate™-96, white polystyrene). Usually, four or eight replica of each sample (corresponding to one test condition) were placed in one column of wells. The plate was sealed with Scotch Pad (Qiagen). Incubation at given temperature, shaking and measurement of the ThT fluorescence emission were done in a Fluoroskan Ascent FL fluorescence platereader (Thermo Labsystems). The temperature was adjusted to 37° C. The plate was incubated with orbital shaking adjusted to 960 rpm with an amplitude of 1 mm. Fluorescence measurement was done using excitation through a 444 nm filter and measurement of emission through a 485 nm filter. Each run was initiated by incubating the plate at the assay temperature for 10 min. The plate was measured every 20 minutes for a desired period of time. Between each measurement, the plate was shaken and heated as described. After completion of the ThT assay the four or eight replica of each sample was pooled and centrifuged at 20000 rpm for 30 minutes at 18° C. The supernatant was filtered through a 0.22 μm filter and an aliquot was transferred to a HPLC vial. The concentration of peptide in the initial sample and in the filtered supernatant was determined by reverse phase HPLC using an appropriate standard as reference. The percentage fraction the concentration of the filtered sample constituted of the initial sample concentration was reported as the recovery. The measurement points were saved in Microsoft Excel format for further processing and curve drawing and fitting was performed using GraphPad Prism. The background emission from ThT in the absence of fibrils was negligible. The data points are typically a mean of four or eight samples and shown with standard deviation error bars. Only data obtained in the same experiment (i.e. samples on the same plate) are presented in the same graph ensuring a relative measure of fibrillation between experiments. The data set may be fitted to Eq. (1).

human GLP-1 receptor [2] = target: T1, human GLP-1 receptor (Homo sapiens, UniProt P43220); test: Assay (I)(a) GLP-1 receptor activation, CRE luciferase reporter gene assay in BHK cells; assay type: cell-based; details: without presence of serum albumin; read-out: GLP-1R EC50 (pM) [Assay (I)(a)]
T1 construct: expressed in transfected cells; host or cells: membranes of BHK cells (parent BHKTS13), clone FCW467-12A
Description: The purpose of this example was to test the activity or potency, of the glucagon derivatives of the invention, in vitro. The in vitro potency is the measure of human GLP-1 receptor (GLP-1R) or glucagon receptor (glucagonR) activation, respectively, in a whole cell assay. In vitro potency was determined by measuring the response of human GLP-1 or glucagon receptor, respectively, in a reporter gene assay. The assay was performed in a stably transfected BHK cell line that expresses either the human GLP-1 receptor or the human glucagon receptor and contains the DNA for the cAMP response element (CRE) coupled to a promoter and the gene for firefly luciferase (CRE luciferase). […] When assay incubation was completed, the luciferase substrate (luciferin) was added and the enzyme converted luciferin to oxyluciferin and produces bioluminescence. The luminescence was measured as the readout for the assay. The cells used in this assay (clone FCW467-12A/KZ10-1) were BHK cells with BHKTS13 as a parent cell line. The cells were derived from a clone (FCW467-12A) that expresses the human GLP-1 receptor and were established by further transfection with CRE luciferase to obtain the current clone. The cells were cultured at 5% CO2 in DMEM medium with 10% FBS, 1×GlutaMAX, 1 mg/ml G418, 240 nM MTX (methotrexate) and 1% pen/strep (penicillin/streptomycin). They were aliquoted and stored in liquid nitrogen. Before each assay, an aliquot was taken up and washed three times in PBS before being suspended at the desired concentration in assay medium. For 96-well plates the suspension was made to give a final concentration of 5×10EE3 cells/well. The following chemicals were used in the assay: Pluronic F-68 (10%) (Gibco 2404), ovalbumin (Sigma A5503), DMEM w/o phenol red (Gibco 11880-028), 1 M Hepes (Gibco 15630), Glutamax 100× (Gibco 35050) and steadylite plus (PerkinElmer 6016757). Assay Medium consisted of DMEM w/o phenol red, 10 mM Hepes, 1× GlutaMAX, 2% Ovalbumin and 0.2% Pluronic F-68. Cell stocks were thawed in a 37° C. water bath. Cells were washed three times in PBS. The cells were counted and adjusted to 5×10EE3 cells/50 μl (1×10EE5 cells/ml) in Assay Medium. A 50 μl aliquot of cells was transferred to each well in the assay plate. Stocks of the test compounds and reference compounds were diluted to a concentration of […] in Assay Medium. Compounds were diluted 10-fold to give the following concentrations: 2×10EE-6 M, 2×10EE-7 M, 2×10EE-8 M; 2×10EE-9 M, 2×10EE-10 M, 2×10EE-11 M, 2×10EE-12 M and 2×10EE-13 M. For each compound a blank assay medium control was also included. A 50 μl aliquot of compound or blank was transferred from the dilution plate to the assay plate. Compounds were tested at the following final concentrations: 1×10EE-6 M, 1×10EE-7 M, 1×10EE-8 M; 1×10EE-9 M, 1×10EE-10 M, 1×10EE-11 M and 1×10EE-12 M and 1×10EE-13 M. The assay plate was incubated for 3 h in a 5% CO2 incubator at 37° C. The assay plate was removed from the incubator and allowed to stand at room temperature for 15 min. A 100 μl aliquot of steadylite plus reagent was added to each well of the assay plate (reagent is light sensitive). Each assay plate was covered with aluminum foil to protect it from light and shaken for 30 min at room temperature. Each assay plate was read in a Perkin Elmer TopCount NXT instrument. The data from the TopCount instrument was transferred to GraphPad Prism software. The software performed a non-linear regression (log(agonist) vs response-Variable slope (four parameter)). EC50 values were calculated by the software and reported in pM.

human GLP-1 receptor [3] = target: T1, human GLP-1 receptor; test: Assay (II)(a) GLP-1 receptor binding, 125I-GLP-1 displacement SPA on BHK membranes; details: without presence of serum albumin; read-out: GLP-1R IC50 (nM) [Assay (II)(a)]
Outline: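 Membranes from BHK cells (clone FCW467-12A) stably expressing human GLP-1R were incubated with serially diluted compounds (8×10EE-13 to 8×10EE-7 M before addition) and [125I]-GLP-1-(7-36)NH2 with WGA SPA beads, 2 h at 30° C, pH 7.4. IC50 taken from displacement by non-linear regression. Run at ≤0.001% or 2.0% final serum albumin.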

T1 sequence (P43220 24-463): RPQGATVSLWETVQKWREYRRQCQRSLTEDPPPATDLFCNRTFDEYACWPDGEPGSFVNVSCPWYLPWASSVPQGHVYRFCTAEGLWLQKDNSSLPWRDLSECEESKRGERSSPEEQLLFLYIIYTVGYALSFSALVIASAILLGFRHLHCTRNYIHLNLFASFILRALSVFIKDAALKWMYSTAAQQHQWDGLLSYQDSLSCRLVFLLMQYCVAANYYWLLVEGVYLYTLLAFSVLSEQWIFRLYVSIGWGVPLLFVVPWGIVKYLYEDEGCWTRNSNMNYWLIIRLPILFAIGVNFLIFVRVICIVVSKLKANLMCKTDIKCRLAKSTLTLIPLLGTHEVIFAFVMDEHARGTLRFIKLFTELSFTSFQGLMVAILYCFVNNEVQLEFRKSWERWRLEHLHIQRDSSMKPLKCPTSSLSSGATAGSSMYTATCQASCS

| ThT Assay Lag time (h) [Assay (III), pH 7.5] [1] [h] | EC50 (human GLP-1 receptor [2]) [pM] | IC50 (human GLP-1 receptor [3]) [nM] | SMILES |
| --- | --- | --- | --- |
| 45.0 |  |  | CC[C@H](C)[C@H](NC(=O)[C@H](CC(C)C)NC(=O)[C@H](Cc1c[nH]c2ccccc12)NC(=O)[C@H](CCC(N)=O)NC(=O)[C@@H](NC(=O)[C@H](Cc1ccccc1)NC(=O)[C@H](CCC(=O)O)NC(=O)[C@H](CCCNC(=N)N)NC(=O)[C@H](C)NC(=O)[C@H](CCCNC(=N)N)NC(=O)[C@H](CCCNC(=N)N)NC(=O)[C@H](CO)NC(=O)[C@H](CCC(=O)O)NC(=O)[C@H](CC(C)C)NC(=O)[C@H](Cc1ccc(O)cc1)NC(=O)[C@H](CCCCN)NC(=O)[C@H](CO)NC(=O)[C@@H](NC(=O)[C@H](CC(=O)O)NC(=O)[C@H](CO)NC(=O)[C@@H](NC(=O)[C@H](Cc1ccccc1)NC(=O)[C@@H](NC(=O)CNC(=O)[C@H](CCC(N)=O)NC(=O)C1(NC(=O)[C@@H](N)Cc2c[nH]cn2)CCC1)[C@@H](C)O)[C@@H](C)O)C(C)C)C(C)C)C(=O)N[C@@H](CCCCNC(=O)CC[C@H](NC(=O)CC[C@H](NC(=O)COCCOCCNC(=O)COCCOCCNC(=O)CC[C@H](NC(=O)CC[C@H](NC(=O)CCCCCCCCCCCCCCCCC(=O)O)C(=O)O)C(=O)O)C(=O)O)C(=O)O)C(=O)N[C@H](C(N)=O)[C@@H](C)O [Chem. 19, N^ε28-[(4S)-4-carboxy-4-[[(4S)-4-carboxy-4-[[2-[2-[2-[[2-[2-[2-[[(4S)-4-carboxy-4-[[(4S)-4-carboxy-4-(17-carboxyheptadecanoylamino)butanoyl]amino]butanoyl]amino]ethoxy]ethoxy]acetyl]amino]ethoxy]ethoxy]acetyl]amino]butanoyl]amino]butanoyl]-[Acb2,Val10,Glu15,Arg20,Glu21,Ile27,Lys28]-Glucagon amide] (H-H[Ac4c]QGTFTSDVSKYLESRRAREFVQWLIK([γGlu-γGlu-AEEA-AEEA-γGlu-γGlu-C18 diacid])T-NH2) |
|  | 7 | 0.1 | CC[C@H](C)[C@H](NC(=O)[C@H](CC(C)C)NC(=O)[C@H](Cc1c[nH]c2ccccc12)NC(=O)[C@H](CCC(N)=O)NC(=O)[C@@H](NC(=O)[C@H](Cc1ccccc1)NC(=O)[C@H](CC(=O)O)NC(=O)[C@H](CCC(N)=O)NC(=O)[C@H](C)NC(=O)[C@H](CCCNC(=N)N)NC(=O)[C@H](CCCNC(=N)N)NC(=O)[C@H](CO)NC(=O)[C@H](CCC(=O)O)NC(=O)[C@H](CC(C)C)NC(=O)[C@H](Cc1ccc(O)cc1)NC(=O)[C@H](CCCCN)NC(=O)[C@H](CO)NC(=O)[C@H](CC(C)C)NC(=O)[C@H](CC(=O)O)NC(=O)[C@H](CO)NC(=O)[C@@H](NC(=O)[C@H](Cc1ccccc1)NC(=O)[C@@H](NC(=O)CNC(=O)[C@H](CCC(N)=O)NC(=O)C(C)(C)NC(=O)[C@@H](N)Cc1c[nH]cn1)[C@@H](C)O)[C@@H](C)O)C(C)C)C(=O)N[C@@H](CCCCNC(=O)COCCOCCNC(=O)COCCOCCNC(=O)CC[C@H](NC(=O)CC[C@H](NC(=O)CC[C@H](NC(=O)CCCCCCCCCCCCCCCCC(=O)O)C(=O)O)C(=O)O)C(=O)O)C(=O)N[C@H](C(N)=O)[C@@H](C)O [Chem. 8, N^ε28-[2-[2-[2-[[2-[2-[2-[[(4S)-4-carboxy-4-[[(4S)-4-carboxy-4-[[(4S)-4-carboxy-4-(17-carboxyheptadecanoylamino)butanoyl]amino]butanoyl]amino]butanoyl]amino]ethoxy]ethoxy]acetyl]amino]ethoxy]ethoxy]acetyl]-[Aib2,Leu10,Glu15,Ile27,Lys28]-Glucagon amide] (H-H[Aib]QGTFTSDLSKYLESRRAQDFVQWLIK([AEEA-AEEA-γGlu-γGlu-γGlu-C18 diacid])T-NH2; N-terminus assumed) |
|  | 2 | 0.3 | CC[C@H](C)[C@H](NC(=O)[C@H](CC(C)C)NC(=O)[C@H](Cc1c[nH]c2ccccc12)NC(=O)[C@H](CCCCNC(=O)COCCOCCNC(=O)COCCOCCNC(=O)CC[C@H](NC(=O)CC[C@H](NC(=O)CC[C@H](NC(=O)CCCCCCCCCCCCCCCCC(=O)O)C(=O)O)C(=O)O)C(=O)O)NC(=O)[C@@H](NC(=O)[C@H](Cc1ccccc1)NC(=O)[C@H](CCC(=O)O)NC(=O)[C@H](CCCNC(=N)N)NC(=O)[C@H](C)NC(=O)[C@H](CCCNC(=N)N)NC(=O)[C@H](CCCCN)NC(=O)[C@H](C)NC(=O)[C@H](CC(=O)O)NC(=O)[C@H](CC(C)C)NC(=O)[C@H](Cc1ccc(O)cc1)NC(=O)[C@H](CCCCN)NC(=O)[C@H](CO)NC(=O)[C@H](Cc1ccc(O)cc1)NC(=O)[C@H](CC(=O)O)NC(=O)[C@H](CO)NC(=O)[C@@H](NC(=O)[C@H](Cc1ccccc1)NC(=O)[C@@H](NC(=O)CNC(=O)[C@H](CCC(N)=O)NC(=O)C(C)(C)NC(=O)[C@@H](N)Cc1c[nH]cn1)[C@@H](C)O)[C@@H](C)O)C(C)C)C(=O)N[C@@H](CO)C(=O)N[C@H](C(N)=O)[C@@H](C)O [Chem. 2, N^ε24-[2-[2-[2-[[2-[2-[2-[[(4S)-4-carboxy-4-[[(4S)-4-carboxy-4-[[(4S)-4-carboxy-4-(17-carboxyheptadecanoylamino)butanoyl]amino]butanoyl]amino]butanoyl]amino]ethoxy]ethoxy]acetyl]amino]ethoxy]ethoxy]acetyl]-[Aib2,Ala16,Lys17,Arg20,Glu21,Lys24,Ile27,Ser28]-Glucagon amide] (H-H[Aib]QGTFTSDYSKYLDAKRAREFVK([AEEA-AEEA-γGlu-γGlu-γGlu-C18 diacid])WLIST-NH2; N-terminus assumed) |

From patent publication US10570184B2, “GLP-1/glucagon receptor co-agonists for medical use” (Novo Nordisk A/S, priority 2014, dated 2020)
